In patent publication US6737383B1, “Herbicidal oxadiazolidines” (priority 1999, dated 2004):

What was measured:
blackgrass = assay: Test B pre/postemergence blackgrass; format: in vivo, Alopecurus myosuroides
How it was run: (§1)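 Test chemicals in a non-phytotoxic solvent mixture with surfactant were sprayed preemergence onto planted seeds and postemergence onto plants 2 to 18 cm tall (1- to 4-leaf stage). After twelve to sixteen days in a greenhouse, injury was visually rated against untreated controls from 0 (no effect) to 10 (complete control).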

surinam grass = assay: Test B pre/postemergence surinam grass; format: in vivo, Brachiaria decumbens
How it was run: as §1

cocklebur = assay: Test B pre/postemergence cocklebur; format: in vivo, Xanthium strumarium
How it was run: as §1

corn = assay: Test B pre/postemergence corn; format: in vivo, Zea mays
How it was run: as §1

crabgrass = assay: Test B pre/postemergence crabgrass; format: in vivo, Digitaria sanguinalis
How it was run: as §1

giant foxtail = assay: Test B pre/postemergence giant foxtail; format: in vivo, Setaria faberii
How it was run: as §1

pigweed = assay: Test B pre/postemergence pigweed; format: in vivo, Amaranthus retroflexus; details: for Redroot pigweed plant response rating: Postemergence; for Plant response rating, Redroot pigweed: Preemergence
How it was run: as §1

rape = assay: Test B pre/postemergence rape; format: in vivo, Brassica napus
How it was run: as §1

soybean = assay: Test B pre/postemergence soybean; format: in vivo, Glycine max
How it was run: as §1

sugar beet = assay: Test B pre/postemergence sugar beet; format: in vivo, Beta vulgaris
How it was run: as §1

wheat = assay: Test B pre/postemergence wheat; format: in vivo, Triticum aestivum
How it was run: as §1

purple nutsedge = assay: Test B pre/postemergence purple nutsedge; format: in vivo, Cyperus rotundus
How it was run: as §1

rice = assay: Test B flood test rice; format: in vivo, Oryza sativa
How it was run: (§2)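 Read-out is a visual response score from 0 (no effect) to 10 (complete control), assigned by comparison with untreated controls. Treatment was applied at the 2-leaf stage, and plants stayed in the greenhouse for twelve to sixteen days before scoring.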

smallflower flatsedge = assay: Test B flood test smallflower flatsedge; format: in vivo, Cyperus difformis
How it was run: as §2

duck salad = assay: Test B flood test duck salad; format: in vivo, Heteranthera limosa
How it was run: as §2

bamyardgrass = assay: Test B flood test barnyardgrass; format: in vivo, Echinochloa crus-galli
How it was run: as §2

[1] = Postemergence, Rate 62 g/ha, scale 0 to 10, 0 is no effect, 10 is complete control
[2] = Postemergence, Rate 250 g/ha, scale 0 to 10, 0 no effect, 10 complete control
[3] = Preemergence, Rate 62 g/ha, scale 0 to 10, 0 is no effect, 10 is complete control
[4] = Preemergence, Rate 125 g/ha, scale 0 to 10 (0 no effect, 10 complete control)
[5] = Preemergence, Rate 250 g/ha, scale of 0 to 10 where 0 is no effect and 10 is complete control
[6] = Preemergence, Rate 500 g/ha, scale 0 (no effect) to 10 (complete control)
[7] = Rate 125 g/ha, Postemergence, scale 0 to 10, 0 no effect, 10 complete control
[8] = Rate 500 g/ha, Postemergence, 0 to 10 scale (0 no effect, 10 complete control)
[9] = Rate 62 g/ha, scale 0 to 10, 0 is no effect, 10 is complete control
[10] = Rate 125 g/ha, Postemergence section (flood test species), scale 0 to 10, 0 no effect, 10 complete control
[11] = Rate 500 g/ha, Postemergence section of Table B, 0 to 10 scale (0 no effect, 10 complete control)
[12] = flood test, listed under Postemergence, Rate 250 g/ha, scale 0 to 10, 0 no effect, 10 complete control

With `CC(C)N(C(=O)n1oc(=O)n(-c2c(Cl)cccc2Cl)c1=O)c1ccc(F)cc1` [Compound 19] the “Blackgrass plant response rating” value (blackgrass; [1]) was 0, the “Blackgrass plant response rating” value (blackgrass; [2]) was 0 and the “Plant response rating, Blackgrass” value (blackgrass; [3]) was 0. For the same compound, the “Plant response rating, Blackgrass” value (blackgrass; [4]) was 2, the “Plant response rating, Blackgrass” value (blackgrass; [5]) was 2 and the “Blackgrass plant response rating” value (blackgrass; [6]) was 3. For the same compound, the “Blackgrass plant response rating” value (blackgrass; [7]) was 0, the “Blackgrass plant response rating” value (blackgrass; [8]) was 2 and the “B. signalgrass plant response rating” value (surinam grass; [1]) was 0. The “B. signalgrass plant response rating” value (surinam grass; [2]) was 0, the “Plant response rating, B. signalgrass” value (surinam grass; [3]) was 0 and the “Plant response rating, B. signalgrass” value (surinam grass; [4]) was 2. For the same compound, the “Plant response rating, B. signalgrass” value (surinam grass; [5]) was 2, the “B. signalgrass plant response rating” value (surinam grass; [6]) was 2 and the “B. signalgrass plant response rating” value (surinam grass; [7]) was 0. The “B. signalgrass plant response rating” value (surinam grass; [8]) was 0, the “Cocklebur plant response rating” value (cocklebur; [1]) was 0 and the “Cocklebur plant response rating” value (cocklebur; [2]) was 0. The “Plant response rating, Cocklebur” value (cocklebur; [3]) was 0, the “Plant response rating, Cocklebur” value (cocklebur; [5]) was 0 and the “Cocklebur plant response rating” value (cocklebur; [6]) was 0. For the same compound, the “Cocklebur plant response rating” value (cocklebur; [7]) was 0, the “Cocklebur plant response rating” value (cocklebur; [8]) was 0 and the “Corn plant response rating” value (corn; [1]) was 0. For the same compound, the “Corn plant response rating” value (corn; [2]) was 0, the “Plant response rating, Corn” value (corn; [3]) was 0 and the “Plant response rating, Corn” value (corn; [4]) was 0. The “Plant response rating, Corn” value (corn; [5]) was 0, the “Corn plant response rating” value (corn; [6]) was 0 and the “Corn plant response rating” value (corn; [7]) was 0. The “Corn plant response rating” value (corn; [8]) was 0, the “Crabgrass plant response rating” value (crabgrass; [1]) was 0 and the “Crabgrass plant response rating” value (crabgrass; [2]) was 0. The “Plant response rating, Crabgrass” value (crabgrass; [3]) was 3, the “Plant response rating, Crabgrass” value (crabgrass; [4]) was 5 and the “Plant response rating, Crabgrass” value (crabgrass; [5]) was 7. For the same compound, the “Crabgrass plant response rating” value (crabgrass; [6]) was 10, the “Crabgrass plant response rating” value (crabgrass; [7]) was 0 and the “Giant foxtail plant response rating” value (giant foxtail; [1]) was 0. The “Giant foxtail plant response rating” value (giant foxtail; [2]) was 0, the “Plant response rating, Giant foxtail” value (giant foxtail; [3]) was 0 and the “Plant response rating, Giant foxtail” value (giant foxtail; [4]) was 2. For the same compound, the “Plant response rating, Giant foxtail” value (giant foxtail; [5]) was 4, the “Giant foxtail plant response rating” value (giant foxtail; [6]) was 5 and the “Giant foxtail plant response rating” value (giant foxtail; [7]) was 0. The “Giant foxtail plant response rating” value (giant foxtail; [8]) was 1, the “Redroot pigweed plant response rating” value (pigweed; [9]) was 0 and the “Redroot pigweed plant response rating” value (pigweed; Rate 250 g/ha, scale 0 to 10, 0 no effect, 10 complete control) was 2. The “Plant response rating, Redroot pigweed” value (pigweed; [9]) was 0, the “Plant response rating, Redroot pigweed” value (pigweed; Rate 125 g/ha, scale 0 to 10 (0 no effect, 10 complete control)) was 0 and the “Plant response rating, Redroot pigweed” value (pigweed; Rate 250 g/ha, scale of 0 to 10 where 0 is no effect and 10 is complete control) was 2. The “Redroot pigweed plant response rating” value (pigweed; Rate 125 g/ha, scale 0 to 10, 0 no effect, 10 complete control) was 0, the “Redroot pigweed plant response rating” value (pigweed; Rate 500 g/ha, 0 to 10 scale (0 no effect, 10 complete control)) was 5 and the “Rape plant response rating” value (rape; [1]) was 0. The “Rape plant response rating” value (rape; [2]) was 0, the “Plant response rating, Rape” value (rape; [3]) was 0 and the “Plant response rating, Rape” value (rape; [4]) was 0. The “Plant response rating, Rape” value (rape; [5]) was 0, the “Rape plant response rating” value (rape; [6]) was 3 and the “Rape plant response rating” value (rape; [7]) was 0. The “Rape plant response rating” value (rape; [8]) was 0, the “Soybean plant response rating” value (soybean; [1]) was 2 and the “Soybean plant response rating” value (soybean; [2]) was 3. For the same compound, the “Plant response rating, Soybean” value (soybean; [3]) was 0, the “Plant response rating, Soybean” value (soybean; [4]) was 0 and the “Plant response rating, Soybean” value (soybean; [5]) was 0. The “Soybean plant response rating” value (soybean; [6]) was 0, the “Soybean plant response rating” value (soybean; [7]) was 3 and the “Sugarbeets plant response rating” value (sugar beet; [1]) was 0. The “Sugarbeets plant response rating” value (sugar beet; [2]) was 0, the “Plant response rating, Sugarbeets” value (sugar beet; [3]) was 0 and the “Plant response rating, Sugarbeets” value (sugar beet; [4]) was 0. The “Plant response rating, Sugarbeets” value (sugar beet; [5]) was 1, the “Sugarbeets plant response rating” value (sugar beet; [6]) was 2 and the “Sugarbeets plant response rating” value (sugar beet; [7]) was 0. The “Wheat plant response rating” value (wheat; [1]) was 0, the “Wheat plant response rating” value (wheat; [2]) was 0 and the “Plant response rating, Wheat” value (wheat; [3]) was 0. The “Plant response rating, Wheat” value (wheat; [4]) was 0, the “Plant response rating, Wheat” value (wheat; [5]) was 0 and the “Wheat plant response rating” value (wheat; [6]) was 0. The “Wheat plant response rating” value (wheat; [7]) was 0, the “Nutsedge plant response rating” value (purple nutsedge; [1]) was 0 and the “Nutsedge plant response rating” value (purple nutsedge; [2]) was 0. The “Plant response rating, Nutsedge” value (purple nutsedge; [3]) was 0, the “Plant response rating, Nutsedge” value (purple nutsedge; [4]) was 0 and the “Plant response rating, Nutsedge” value (purple nutsedge; [5]) was 0. For the same compound, the “Nutsedge plant response rating” value (purple nutsedge; [6]) was 0, the “Nutsedge plant response rating” value (purple nutsedge; [7]) was 0 and the “Nutsedge plant response rating” value (purple nutsedge; [8]) was 0. The “Rice plant response rating” value (rice; [1]) was 0, the “Rice plant response rating” value (rice; [10]) was 0 and the “Rice plant response rating” value (rice; [11]) was 0. For the same compound, the “Rice plant response rating” value (rice; [12]) was 0, the “S. Flatsedge plant response rating” value (smallflower flatsedge; [1]) was 0 and the “S. Flatsedge plant response rating” value (smallflower flatsedge; [10]) was 0. The “S. Flatsedge plant response rating” value (smallflower flatsedge; [12]) was 0, the “Ducksalad plant response rating” value (duck salad; [1]) was 0 and the “Ducksalad plant response rating” value (duck salad; [10]) was 0. For the same compound, the “Ducksalad plant response rating” value (duck salad; [11]) was 0, the “Ducksalad plant response rating” value (duck salad; [12]) was 0 and the “Barnyardgrass plant response rating” value (bamyardgrass; [1]) was 0. The “Barnyardgrass plant response rating” value (bamyardgrass; [10]) was 0, the “Barnyardgrass plant response rating” value (bamyardgrass; [11]) was 0 and the “Barnyardgrass plant response rating” value (bamyardgrass; [12]) was 0.
